Measurements as given in patent US20130156845A1, “LIPID FORMULATED SINGLE STRANDED RNA” (ALNYLAM PHARMACEUTICALS, INC., priority 2010, published 2013).
Where two headings read alike, the source gives them in different places. Strand notation (5' to 3'): a small letter for the sugar, then the base; units joined by * are phosphorothioate-linked, units joined directly phosphodiester-linked; [ ] holds rarer units or linkages, { } end groups; capitals alone tell only the bases. [Rc] = thymidine, 2',5'-bis modified nucleoside Rc; e = 2'-O-(2-methoxyethyl) (MOE); m = 2'-O-methyl; {P} = phosphate; f = 2'-fluoro

Legend:
[1] = mouse, serum
Protocol: Single-stranded oligomeric compounds were tested for stability in mouse serum.

PTEN [2] = test: PTEN mRNA reduction in HeLa cells, dose response (Example 59); assay type: cell-based, human; details: percent inhibition of PTEN mRNA, real-time PCR normalized to RIBOGREEN, 0.20-50 nM
Protocol: When cells reached 65-75% confluency, they are treated with one or more oligomeric compounds. The oligomeric compound is mixed with LIPOFECTIN™ Invitrogen Life Technologies, Carlsbad, Calif.) in Opti-MEM™-1 reduced serum medium (Invitrogen Life Technologies, Carlsbad, Calif.) to achieve the desired concentration of the oligomeric compound(s) and a LIPOFECTIN™ concentration of 2.5 or 3 μg/mL per 100 nM oligomeric compound(s). This transfection mixture is incubated at room temperature for approximately 0.5 hours. For cells grown in 96-well plates, wells are washed once with 100 μL OPTI-MEM™-1 and then treated with 130 μL of the transfection mixture. Cells grown in 24-well plates or other standard tissue culture plates are treated similarly, using appropriate volumes of medium and oligomeric compound(s). […]
Quantitation of target mRNA levels is accomplished by real-time quantitative PCR using the ABI PRISM™ 7600, 7700, or 7900 Sequence Detection System (PE-Applied Biosystems, Foster City, Calif.) according to manufacturer's instructions. This is a closed-tube, non-gel-based, fluorescence detection system which allows high-throughput quantitation of polymerase chain reaction (PCR) products in real-time. As opposed to standard PCR in which amplification products are quantitated after the PCR is completed, products in real-time quantitative PCR are quantitated as they accumulate. […]

human PTEN = test: PTEN expression in HeLa cells, ssRNAs vs siRNAs (Example 62); assay type: cell-based
How it was run: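 HeLa cells treated with antisense strands either as single-stranded RNAs or duplexed with a common sense strand. PTEN mRNA levels normalized; IC50 from linear regression of normalized mRNA against log concentration.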

PTEN [3] = test: PTEN mRNA reduction in HeLa cells, dose response (Example 69); assay type: cell-based, human; details: percent inhibition of PTEN mRNA, 0.067-50 nM
Protocol: In accordance with the present disclosure, oligomeric compounds were synthesized and tested for their ability to reduce PTEN expression over a range of doses. Human HeLa cells were treated with either ISIS 447581, 467074, 418046 or 467076. A dose comparison was evaluated with dose concentrations of 0.067, 0.2, 0.62, 1.9, 5.5, 16.7 and 50 nM using methods described herein. Expression levels of PTEN were determined using real-time PCR and normalized to RIBOGREEN™ using methods described herein. The percent inhibition of PTEN mRNA was determined and the resulting dose-response curves were used to determine the EC50. The EC50s are listed below.

A549 cells = test: MicroRNA mimics: cell cycle assay; assay type: cell-based; details: RNAIMAX transfection, 0.1-100 nM, nocodazole, propidium iodide flow cytometry
Protocol: A cell cycle assay was used to evaluate the activity of microRNA mimics. A549 cells were plated at a density of approximately 45,000 cells per well of a 24-well plate. The following day, cells were transfected with microRNA mimics and control oligomeric compounds, using RNAIMAX as the transfection reagent. Oligomeric compounds were tested at concentrations ranging from 0.1 nM to 100 nM. Control oligomeric compounds were also tested. Approximately 24 hours following transfection, nocodazole was added to the cells at a concentration ranging from 0.5 to 2.0 μg/ml. Approximately 16 hours later, the cells were harvested, washed, ethanol-fixed and stained with propidium iodide. Cells cycle profiles were generated by subjecting the stained cells to flow cytometry (FACSCAN).

[4] = tested on: miR-34 seed-matched nucleic acids; test: Microarray analysis of gene expression changes after miR-34 mimics; assay type: cell-based; details: microarray analysis of cells treated with miR-34 mimics
Source text: In addition to measuring cell cycle progression, cells treated with miR-34 mimics were subjected to microarray analysis to compare the profile of gene expression changes following treatment with microRNA mimics.

5′-Ps-UdUfoGfoUfoCfoUfoCfoUfoGfoGfoUfoCfoCfoUfsUfsAfsCfsUfsUfsAesAe [ISIS 435395]
T1/2 full length [1]: 7.8 h

P-TRcUfGmUfCmUfCmUfGmGfUmCfCmUfUmAfCmUfUmAeAe (antisense TUGUCUCUGGUCCUUACUUAA; sugars from the 5' end [Rc]fmfmfmfmfmfmfmfmfmee, 5' {P}, backbone not given here) [ISIS 447581, modified ssRNA targeting PTEN]
EC50 (PTEN [2]): 0.87 nM | EC50 (human PTEN; antisense strand duplexed with sense strand ISIS 341401, PTEN mRNA, read-out: EC50 (nM) siRNA): 0.4 nM | EC50 (human PTEN; single stranded antisense compound, PTEN mRNA, read-out: EC50 (nM) ssRNA): 1 nM | EC50 (PTEN [3]): 0.6 nM

P-UmGfGfCfAfGfUfGfUmCmUfUfAmGmCfUfGfGfUfUfGfUfAeAe ({P}-mUfGfGfCfAfGfUfGmUmCfUfUmAmGfCfUfG*fG*fU*fU*fG*fU*eA*eA) [ss miR-34]
cell cycle phenotype (A549 cells): blocking cells in the G1 phase of the cell cycle | effect on miR-34 seed-matched nucleic acids [4]: down-regulated miR-34 seed-matched nucleic acids
